Test results taken from US10351530B2, “Arylcyclohexyl pyrazoles as NRF2 regulators” (GlaxoSmithKline Intellectual Property Development Limited, priority 2015, dated 2019).

What was measured:
Keap1/NRF2 = molecular target: T1, Keap1/NRF2 (Homo sapiens, UniProt Q14145); assay: NRF2-Keap1 FP Assay (Kelch domain (321-609) of Keap1, TAMRA-labeled NRF2 ETGE peptide); assay type: binding; conditions: Keap1 (321-609) 20 nM, Tamra labeled peptide 8 nM
T1 construct: Keap1 (321-609) is diluted to 40 nM (2×) in 1× assay buffer
T1 sequence (Q14145 321-609): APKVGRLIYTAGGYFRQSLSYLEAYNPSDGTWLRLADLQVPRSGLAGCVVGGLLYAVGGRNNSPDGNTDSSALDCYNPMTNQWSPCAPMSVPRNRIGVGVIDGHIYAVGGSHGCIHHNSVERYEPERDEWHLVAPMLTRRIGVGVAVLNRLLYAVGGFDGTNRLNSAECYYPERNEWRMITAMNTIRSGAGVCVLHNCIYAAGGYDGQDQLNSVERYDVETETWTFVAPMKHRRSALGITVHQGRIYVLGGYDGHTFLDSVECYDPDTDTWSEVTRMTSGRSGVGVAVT
In short: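 Fluorescence polarization competition: Keap1 Kelch (321-609) at 20 nM final and TAMRA-ETGE 16-mer peptide at 8 nM final with 3-fold compound dilutions, 1 h room temperature in Tris pH 8.0 buffer (NaCl, MgCl2, DTT, CHAPS, BSA). mP normalized to protein+peptide and peptide-alone controls; pIC50 by four-parameter fit.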

NRF2/Keap1 = molecular target: T2, NRF2/Keap1 (Homo sapiens, UniProt Q14145); assay: NRF2-Keap1 TR-FRET Assay (full length NRF2 and full length Keap1); assay type: binding; conditions: 25 nM Keap1-FlagHis, 50 nM biotin-NRF2 added
T2 construct: full length NRF2 protein and full length Keap1 protein (Keap1 exists a dimer) are used
T2 sequence (Q14145 whole entry): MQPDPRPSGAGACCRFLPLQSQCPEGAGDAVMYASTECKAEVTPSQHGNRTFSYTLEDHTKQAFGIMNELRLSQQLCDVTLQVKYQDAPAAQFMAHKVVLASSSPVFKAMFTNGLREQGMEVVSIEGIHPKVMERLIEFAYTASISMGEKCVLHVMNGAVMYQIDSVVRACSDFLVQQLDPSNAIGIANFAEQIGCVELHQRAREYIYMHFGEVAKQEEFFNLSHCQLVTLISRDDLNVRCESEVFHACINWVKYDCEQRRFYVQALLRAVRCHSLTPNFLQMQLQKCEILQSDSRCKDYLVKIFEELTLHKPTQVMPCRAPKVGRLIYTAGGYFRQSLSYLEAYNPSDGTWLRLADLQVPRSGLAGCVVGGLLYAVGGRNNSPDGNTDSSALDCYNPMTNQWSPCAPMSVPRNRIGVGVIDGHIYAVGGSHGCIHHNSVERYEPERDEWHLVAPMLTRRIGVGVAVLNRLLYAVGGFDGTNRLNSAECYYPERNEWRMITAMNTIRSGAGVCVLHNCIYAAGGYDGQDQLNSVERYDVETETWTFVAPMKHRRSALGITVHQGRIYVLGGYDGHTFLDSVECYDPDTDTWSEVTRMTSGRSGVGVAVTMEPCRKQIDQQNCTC
Description: In the NRF2-Keap1 TR-FRET (time-resolved fluorescence resonance energy transfer) assay, full length NRF2 protein and full length Keap1 protein (Keap1 exists a dimer) are used. The assay detects the ability of compound to displace the binding of FlagHis-tagged Keap1 with biotinylated, Avi-tagged NRF2 protein. Biotin-NRF2 binds to streptavidin-europium (a component of the detection mix) and Keap1-FlagHis is recognized by anti-Flag APC (allophycocyanin) antibody (also a component of the detection mix). If binding occurs between the two proteins, there will be an energy transfer from the Eu+3 (donor) at 615 nm to the APC (acceptor) at 665 nm. A potential Keap1 inhibitor will cause a reduction in the TR-FRET signal by interfering with the binding of Keap1 to NRF2.
One hundred nanoliters of 100× compound dose response curves (serial 3-fold dilutions) in DMSO are stamped using an Echo liquid handling system (Labcyte) into 384-well, low volume, black assay plates (Greiner, #784076), with DMSO in columns 6 and 18. The top concentration of compound is located in columns 1 and 13. All reagents are diluted in assay buffer (50 mM Tris, pH 8.0, 5 mM MgCl2, 100 mM NaCl, 0.005% BSA, 1 mM DTT, and 2 mM CHAPS). The BSA, DTT, and CHAPS are added to the assay buffer on the day of assay. Using a Multidrop Combi (Thermo Electron Corporation) equipped with a metal tip dispenser, 5 ul of 25 nM Keap1-FlagHis protein is added to all wells of the compound plate, with the exception of the wells in column 18. Wells in column 18 receive 5 ul of assay buffer instead. Plates are centrifuged at 500 rpm for 1 minute, covered with a plate lid, and incubated at 37° C. for 2.25 hours. Plates are then removed from the incubator and allowed to cool to RT for 15 minutes. Five microliters of 50 nM biotin-NRF2 protein is then added to all wells of the plates and the plates are spun at 500 rpm for 1 minute, followed by incubating at 4° C. for 1.25 hours. The plates are then allowed to warm to RT for 15 minutes, followed by the addition of 10 ul of detection mix (1 nM Streptavidin Eu+ W1024 and 5 ug/ml mouse anti-DYKDDDDK IgG conjugated to SureLight APC antibody; both from Columbia Biosciences) to all wells. Plates are spun at 500 rpm for 1 minute, incubated for 1 hour at RT, and read on an Envision plate reader using a 320 nm excitation filter and 615 nm and 665 nm emission filters. Compound response (% inhibition) and potency (pIC50) are calculated based on the ratio of the two emissions (665 nm/615 nm) and then the transformed data is normalized against controls in the assay (control 1=1% DMSO in the presence of NRF2 and Keap1 protein and control 2=1% DMSO in the absence of protein). Data analysis is handled using the software package Abase XE (Surrey, United Kingdom). The % inhibition values are calculated from the ratio (transformed) data by the equation: 100−(100*(compound response-average control 2)/(average control 1−average control 2)).
For calculation of pIC50s, Abase XE uses a four parameter equation.

Row | SMILES | IC50 (Keap1/NRF2) [µM] | IC50 (NRF2/Keap1) [µM]
1 | CC1(C)CCc2cnn([C@@H]3CCC[C@@H](c4cccc(-n5ncc(C(=O)O)c5C5CC5)c4)C3)c21 (racemic) [Example 23, 5-Cyclopropyl-1-(3-(t-3-(6,6-dimethyl-5,6-dihydrocyclopenta[c]pyrazol-1(4H)-yl)cyclohexyl)phenyl)-1H-pyrazole-4-carboxylic Acid] | 1 to 10 | 10 to 100
2 | Cn1cc(C2CC2c2c(C(=O)O)cnn2-c2cccc([C@@H]3CCC[C@H](n4ncc5c4C(C)(C)CC5)C3)c2)nn1 (stereo partly drawn) [Example 39, 1-(3-((1R,3S)-3-(6,6-Dimethyl-5,6-dihydrocyclopenta[c]pyrazol-1(4H)-yl)cyclohexyl)phenyl)-5-(2-(1-methyl-1H-1,2,3-triazol-4-yl)cyclopropyl)-1H-pyrazole-4-carboxylic Acid] | 0.01 to 0.1 | 0.01 to 0.1
3 | CCOC[C@@H]1CCCN1C(=O)C1CCCC(c2cccc(-n3ncc(C(=O)O)c3C3CC3)c2)C1 (single isomer, unassigned) [Example 18g] | 0.01 to 0.1 | 0.01 to 0.1
4 | CC(C)CCC1CCCN1C(=O)C1CCCC(c2cccc(-n3ncc(C(=O)O)c3C3CC3)c2)C1 (racemic) [Example 11, 5-Cyclopropyl-1-(3-{3-[2-(3-methylbutyl)pyrrolidine-1-carbonyl]cyclohexyl}phenyl)-1H-pyrazole-4-carboxylic Acid] | 0.01 to 0.1 | 0.1 to 1
5 | CCCCC1CCCN1C(=O)C1CCCC(c2cccc(-n3ncc(C(=O)O)c3C3CC3)c2)C1 (racemic) [Example 8c, 1-{3-[3-(2-Butylpyrrolidine-1-carbonyl)cyclohexyl]phenyl}-5-cyclopropyl-1H-pyrazole-4-carboxylic Acid] | 0.01 to 0.1 | 0.1 to 1
6 | CCCCC1CCc2cnn([C@@H]3CCC[C@@H](c4cccc(-n5ncc(C(=O)O)c5C5CC5)c4)C3)c21 (stereo partly drawn) [Example 38, 1-(3-((1,3-trans)-3-(6-Butyl-5,6-dihydrocyclopenta[c]pyrazol-1(4H)-yl)cyclohexyl)phenyl)-5-cyclopropyl-1H-pyrazole-4-carboxylic Acid] | 1 to 10 | 10 to 100
7 | O=C(O)c1cnn(-c2cccc(C3CCCC(C(=O)N4CCCC4C4CC4)C3)c2)c1C1CC1 (racemic) [Example 12, 5-cyclopropyl-1-{3-[3-(2-cyclopropylpyrrolidine-1-carbonyl)cyclohexyl]phenyl}-1H-pyrazole-4-carboxylic Acid] | 0.01 to 0.1 | 0.1 to 1
8 | CCCC[C@@H]1CCCN1C(=O)[C@H]1CCC[C@@H](c2cccc(-n3ncc(C(=O)O)c3C3CC3)c2)C1 [Example 17f, 1-{3-[(1R,3S)-3-[(2R)-2-Butylpyrrolidine-1-carbonyl]cyclohexyl]phenyl}-5-cyclopropyl-1H-pyrazole-4-carboxylic Acid] | 0.01 to 0.1 | 0.01 to 0.1
9 | Cn1cc(C2CC2c2c(C(=O)O)cnn2-c2cccc([C@H]3CCC[C@H](n4ncc5c4C(C)(C)CC5)C3)c2)nn1 (stereo partly drawn) [Example 40, 1-(3-((1,3-trans)-3-(6,6-Dimethyl-5,6-dihydrocyclopenta[c]pyrazol-1(4H)-yl)cyclohexyl)phenyl)-5-(2-(1-methyl-1H-1,2,3-triazol-4-yl)cyclopropyl)-1H-pyrazole-4-carboxylic Acid] | 0.01 to 0.1 | 0.1 to 1
10 | CCCCC1CCCN1C(=O)C1CCCC(c2cccc(-n3ncc(C(=O)O)c3C3CC3c3cn(C)nn3)c2)C1 (stereo not drawn) [Example 42, 1-(3-(3-(2-Butylpyrrolidine-1-carbonyl)cyclohexyl)phenyl)-5-(2-(1-methyl-1H-1,2,3-triazol-4-yl)cyclopropyl)-1H-pyrazole-4-carboxylic Acid] | 0.01 to 0.1 | 0.1 to 1
11 | CCCCC1CCCC1N(C)C(=O)C1CCCC(c2cccc(-n3ncc(C(=O)O)c3C3CC3)c2)C1 (stereo not drawn) [Example 41, 1-(3-(3-((2-Butylcyclopentyl)(methyl)carbamoyl)cyclohexyl)phenyl)-5-cyclopropyl-1H-pyrazole-4-carboxylic Acid] | 0.1 to 1 | 1 to 10
12 | O=C(O)c1cnn(-c2cccc(C3=CC(C(=O)N4CCCCCC4)CCC3)c2)c1C1CC1 (stereo not drawn) [Example 19, 1-(5′-(Azepane-1-carbonyl)-2′,3′,4′,5′-tetrahydro-[1,1′-biphenyl]-3-yl)-5-cyclopropyl-1H-pyrazole-4-carboxylic Acid] | 0.1 to 1 | 1 to 10
